Legend:
[1] = tested on: HER2 protein in BT-474 cells; assay: Western blot of p-HER2 and t-HER2, BT-474; assay type: cell-based, human; details: BT-474, 5 µM, 72 h
Procedure: SKBR3 and BT-474 were plated in RPMI-1640 media, washed, and incubated for 72 h. They were lysed in cold lysis buffer, frozen, collected, sonicated, and centrifuged for 10 min under cooling. The stacking and resolving solutions for polyacrylamide gels were prepared using various solutions, including 30% acrylamide, 0.5 M Tris, 10% SDS, 10% Ammonium persulfate, and 0.005 mL TEMED in 3.4 mL water and 3.3 mL water respectively. The ReadyPrepTM protein extraction kit was used to extract total protein from samples. Protein concentration was determined using the Bradford Protein Assay Kit. Samples were mixed with Laemmli sample buffer, pH adjusted and boiled for five minutes at 95 °C before loading onto SDS-polyacrylamide gels. Proteins in each sample were mixed, boiled, and loaded onto SDS-polyacrylamide gels. They were separated using the SDS-PAGE method, using the TGX Stain-Free™ FastCast™ Acrylamide Kit and a Cleaver electrophoresis unit. Proteins were transferred from gels to PVDF membranes using transfer sandwiches. Filter paper, membrane, gel, and filter paper were stacked in a sandwich. Gels were blotted onto PVDF membranes via electrophoresis using a Bio-Rad Semi-dry Electroblotter for 30 min. […] The intensity of each band was quantitated using ImageLab.

SKBR3 cells [2] = assay: Transwell cell migration assay, SKBR3; assay type: cell-based, human; details: SKBR3, 6.4 µM, 24 h
Procedure: (§1) The in vitro transwell migration assay was conducted using an HTS-96 transwell permeable support chamber with 8 μm pores (Corning, USA) equipped with polyvinylpyrrolidone-free polycarbonate (PVPF) filters. […] The plate was incubated for 24 h at 37 °C. Then, the transwell inserts were incubated in the receiver plate with Calcein AM/cell dissociation solution at 37 °C in 5% CO2 incubator for 1 h, followed by measuring the fluorescence using a fluorescence plate reader with 485 nm excitation and 520 nm emission filter package. The relative fluorescence units were converted to cell count using a standard curve. The number of cells that moved to the lower side of the filter was used to assess migratory characteristics. The experiment in both cell lines was conducted in triplicate and data are presented as the mean ± SD.

SKBR3 cells [3] = assay: Annexin V-FITC/PI apoptosis detection, SKBR3; assay type: cell-based, human; details: SKBR3, 6.4 µM, 48 h
Procedure: (§2) To evaluate the induction of apoptosis, the translocation of phosphatidylserine to the outer cell membrane, as a hallmark of early apoptosis, was detected by the binding of annexin V, using the Annexin V-FITC Early Apoptosis Detection Kit (BD BioVision). Cells were seeded at a density of 5 × 10^5 cells per 100 mm culture plate and allowed to adhere overnight. […] At the end of the treatment period, cells were harvested by trypsinization, washed twice with ice-cold PBS, and resuspended in 500 µL of chilled 1X Annexin V Binding Buffer. To each sample, 5 µL of Annexin V-FITC conjugate and 5 µL of propidium iodide (PI, 50 µg/mL) were added. The cell suspensions were incubated for 5 minutes on ice in the dark to allow for staining.
(§3) Flow cytometric analysis was performed using excitation at 488 nm and emission at 530 nm for FITC detection (FL1 channel) and phycoerythrin emission settings for PI detection (FL2 channel). Data acquisition and analysis were facilitated by Cell Quest software (BD Biosciences), with dot plots divided into four quadrants to distinguish different cell populations: lower left (LL) for viable, non-apoptotic cells (negative for both annexin V and PI); lower right (LR) for early apoptotic cells (annexin V-positive, PI-negative); upper left (UL) for dead or necrotic cells (PI-positive, annexin V-negative); and upper right (UR) for late apoptotic cells (double-positive). All assays were conducted in triplicate to ensure reliability and reproducibility.

SKBR3 cells [4] = assay: Wound healing assay, SKBR3; assay type: cell-based; details: Homo sapiens, SK-BR-3
Procedure: (§4) In a sterile flat-bottom 24-well plate, SKBR3 and BT-474 breast cancer cells were plated at a density of 1 × 10^5 cells/well. […] Wounds were then inflicted across each cell monolayer using a sterile 200 µL pipette tip. Media was aspirated, and cells were washed twice with PBS to remove floating cells and cell debris. Fresh serum-free media was placed up against the well wall to cover the bottom of the well and prevent further cell detachment. Incubation of cells was resumed for five hours at 37 °C in a humidified CO2 incubator. Subsequently, the media were substituted with fresh ones containing various doses of liquiritin, oroxin B, or DMSO as a vehicle control (3 replicates/group) along with EGF (100 ng/mL) as a scattering factor. Wound closure was microscopically monitored in vehicle-treated control wells, and the time frame for wound closure was determined to be 72 h. Before the closure of wounds in the vehicle-treated control wells, the media were removed, cells were washed with PBS and completely fixed using cold methanol for 20 min at 4 °C. An inverted VistaVision microscope was used to take pictures of the wounds monitored at zero and 72 h with a VistaVision Still camera (VWR, Radnor, PA).
(§5) Results were expressed as a percentage of cell migration according to the following Equation[16]: [drawing 2]
(§6) Where Tt is the wound thickness in treatment wells, TDMSO is the thickness of the wound in control wells treated by DMSO, and Tº is the thickness of the wound at zero time. Wound thickness was calculated in three or more randomly selected fields per treatment group.

MCF10A cells = assay: MTT cytotoxicity assay, non-tumorigenic MCF10A; assay type: cell-based, human
BT-474 cells [5] = assay: Transwell cell migration assay, BT-474; assay type: cell-based; details: Homo sapiens; BT-474, 3.5 µM, 24 h; read-out: inhibition of migration relative to vehicle-treated cells
Procedure: as §1

BT-474 cells [6] = assay: Wound healing assay, BT-474; assay type: cell-based; details: Homo sapiens
Procedure: as §4, §5, §6

BT-474 cells [7] = assay: Annexin V-FITC/PI apoptosis detection, BT-474; assay type: cell-based, human; details: BT-474, 3.5 µM, 48 h
Procedure: as §2, §3

For O=C1C[C@@H](c2ccc(O[C@@H]3O[C@H](CO)[C@@H](O)[C@H](O)[C@H]3O)cc2)Oc2cc(O)ccc21 [Liquiritin], the “total expression levels of HER2 protein” value [1] was “comparable suppressive effects”, the HER2 phosphorylation ([1]; vs vehicle) was “significantly inhibited HER2 phosphorylation” and the reduction in migration (SKBR3 cells [2]) was “approximately 23%”. The early apoptotic population (SKBR3 cells [3]) was 7.33%, the “late apoptosis (Annexin V+/PI+) cells” value (SKBR3 cells [3]) was 14.59% and the necrotic population (SKBR3 cells [3]) was 2.84%. The inhibition at 3 µM (SKBR3 cells [4]; SKBR3, 3 µM, 72 h, read-out: inhibition of cell migration) was 22.1%, the inhibition at 6 µM (SKBR3 cells [4]; SKBR3, 6 µM, 72 h, read-out: inhibition of cell migration) was 32.8% and the inhibition at 10 µM (SKBR3 cells [4]; SKBR3, 10 µM, 72 h, read-out: inhibition of cell migration) was 38.2%. It also gave an inhibition at 20 µM (SKBR3 cells [4]; SKBR3, 20 µM, 72 h, read-out: inhibition of cell migration) of 54.1%, an IC50 (SKBR3 cells [4]; SKBR3, wound healing, read-out: IC50, cell migration) of 16.9 µM and an IC50 (MCF10A cells; Homo sapiens, MCF-10A, MCF10A, MTT, 24 h) of 27.9 ± 1.1 µM. The “selectivity index (SI)” value (MCF10A cells; IC50 MCF10A / IC50 BT-474) was 8, the “selectivity index (SI)” value (MCF10A cells; IC50 MCF10A / IC50 SKBR3) was 4.4 and the inhibition at 3.5 µM (BT-474 cells [5]) was ~76%. It also gave an inhibition at 2 µM (BT-474 cells [6]; BT-474, 2 µM, 72 h, read-out: inhibition of cell migration) of 20%, an inhibition at 3 µM (BT-474 cells [6]; BT-474, 3 µM, 72 h, read-out: inhibition of cell migration) of 25.6% and an inhibition at 5 µM (BT-474 cells [6]; BT-474, 5 µM, 72 h, read-out: inhibition of cell migration) of 31.2%. The inhibition at 10 µM (BT-474 cells [6]; BT-474, 10 µM, 72 h, read-out: inhibition of cell migration) was 50.6%, the IC50 (BT-474 cells [6]; BT-474, wound healing, read-out: IC50, cell migration) was 10.4 µM and the “early apoptosis (Annexin V+/PI−) cells” value (BT-474 cells [7]) was 22.05%. For the same compound, the “late apoptosis (Annexin V+/PI+) cells” value (BT-474 cells [7]) was 11.44% and the necrosis (BT-474 cells [7]) was 3.7%.

Reference: paper PMC12267471, “Discovery of natural scaffolds as HER2 inhibitors for breast cancer: virtual screening, molecular dynamics, and biological characterization with selectivity profiling” (Scientific Reports, 2025)
